Laboratory results from ChEMBL document CHEMBL1140163 (J Med Chem, 2008).

Tests used:
[1] = target: Mitogen-activated protein kinase 10 (Homo sapiens, UniProt P53779); experiment: Inhibition of JNK3
[2] = target: Mitogen-activated protein kinase 14 (Homo sapiens, UniProt Q16539)
[3] = target: Tyrosine-protein kinase Lck (Homo sapiens, UniProt P06239)
[4] = target: Mast/stem cell growth factor receptor Kit (Homo sapiens, UniProt P10721); experiment: Inhibition of cKit
[5] = test system: Blood; experiment: Inhibition of TNF-alpha-induced IL8 production in human whole blood cells; assay type: functional, cell-based
[6] = target: Mitogen-activated protein kinase 9 (Homo sapiens, UniProt P45984); experiment: Inhibition of JNK2
[7] = Half life in Sprague-Dawley rat 2 mg/kg, iv; assay type: ADME, organism-based; set-up: dose 2 mg/kg, route intravenous; conditions: in vivo
[8] = AUC (0 to infinity) in Sprague-Dawley rat 10 mg/kg, po; assay type: ADME, organism-based; set-up: dose 10 mg/kg, route oral, time infinity; conditions: plasma
[9] = target: Vascular endothelial growth factor receptor 2 (Homo sapiens, UniProt P35968)
[10] = Volume of distribution at steady state in Sprague-Dawley rat 2 mg/kg, iv; assay type: ADME, organism-based; set-up: dose 2 mg/kg, route intravenous; conditions: in vivo, read-out: Vdss
[11] = target: Mitogen-activated protein kinase 8 (Homo sapiens, UniProt P45983); experiment: Inhibition of JNK1
[12] = Clearance in Sprague-Dawley rat 2 mg/kg, iv; assay type: ADME, organism-based; set-up: dose 2 mg/kg, route intravenous; conditions: in vivo
[13] = test system: THP-1; experiment: Inhibition of LPS-induced TNFalpha production in human THP1 cells; assay type: functional, cell-based
[14] = Oral bioavailability in Sprague-Dawley rat 10 mg/kg; assay type: ADME, organism-based; conditions: in vivo
[15] = Inhibition of PDGFR
[16] = target: Tyrosine-protein kinase Lyn (Homo sapiens, UniProt P07948); experiment: Inhibition of Lyn
[17] = species: Rattus norvegicus; experiment: Inhibition of LPS-induced TNFalpha production in Lewis rat; assay type: functional
[18] = test system: Rattus norvegicus; experiment: Antiinflammatory activity against collagen-induced arthritis Lewis rat model assessed as area under the paw swelling curve at 0.04 mg/kg, po relative to control; assay type: functional, organism-based; set-up: dose 0.04 mg/kg
[19] = test system: Rattus norvegicus; experiment: Antiinflammatory activity against collagen-induced arthritis in po dosed Lewis rat model assessed as inhibition of paw swelling; assay type: functional
[20] = Permeability from basolateral to apical side of human Caco-2 cells; assay type: ADME, cell-based
[21] = Permeability from apical to basolateral side of human Caco-2 cells; assay type: ADME, cell-based
[22] = Half life in Sprague-Dawley rat 1 mg/kg, iv; assay type: ADME, organism-based; set-up: dose 1 mg/kg, route intravenous; conditions: in vivo
[23] = Oral bioavailability in Sprague-Dawley rat 1 mg/kg; assay type: ADME, organism-based; conditions: in vivo
[24] = AUC (0 to infinity) in Sprague-Dawley rat 1 mg/kg, po; assay type: ADME, organism-based; set-up: time infinity, dose 1 mg/kg, route oral; conditions: plasma
[25] = Volume of distribution at steady state in Sprague-Dawley rat 1 mg/kg, iv; assay type: ADME, organism-based; set-up: dose 1 mg/kg, route intravenous; conditions: in vivo, read-out: Vdss
[26] = Clearance in Sprague-Dawley rat 1 mg/kg, iv; assay type: ADME, organism-based; set-up: dose 1 mg/kg, route intravenous; conditions: in vivo

Tyrosine-protein kinase Lck, sequence (P06239 whole entry): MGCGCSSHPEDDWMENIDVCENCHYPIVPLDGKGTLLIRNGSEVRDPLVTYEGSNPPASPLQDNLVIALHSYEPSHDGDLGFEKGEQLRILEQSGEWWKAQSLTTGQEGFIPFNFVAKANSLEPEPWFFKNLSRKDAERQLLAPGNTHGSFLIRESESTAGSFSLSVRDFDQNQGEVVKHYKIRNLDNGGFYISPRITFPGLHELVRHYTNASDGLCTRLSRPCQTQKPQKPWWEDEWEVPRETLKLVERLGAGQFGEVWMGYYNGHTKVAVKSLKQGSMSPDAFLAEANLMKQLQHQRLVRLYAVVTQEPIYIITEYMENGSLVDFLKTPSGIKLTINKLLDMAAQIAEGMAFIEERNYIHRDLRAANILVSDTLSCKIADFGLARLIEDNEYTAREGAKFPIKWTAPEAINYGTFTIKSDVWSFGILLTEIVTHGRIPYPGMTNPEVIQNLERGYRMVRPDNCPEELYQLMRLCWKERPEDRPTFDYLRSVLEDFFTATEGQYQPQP
Mast/stem cell growth factor receptor Kit, sequence (P10721 whole entry): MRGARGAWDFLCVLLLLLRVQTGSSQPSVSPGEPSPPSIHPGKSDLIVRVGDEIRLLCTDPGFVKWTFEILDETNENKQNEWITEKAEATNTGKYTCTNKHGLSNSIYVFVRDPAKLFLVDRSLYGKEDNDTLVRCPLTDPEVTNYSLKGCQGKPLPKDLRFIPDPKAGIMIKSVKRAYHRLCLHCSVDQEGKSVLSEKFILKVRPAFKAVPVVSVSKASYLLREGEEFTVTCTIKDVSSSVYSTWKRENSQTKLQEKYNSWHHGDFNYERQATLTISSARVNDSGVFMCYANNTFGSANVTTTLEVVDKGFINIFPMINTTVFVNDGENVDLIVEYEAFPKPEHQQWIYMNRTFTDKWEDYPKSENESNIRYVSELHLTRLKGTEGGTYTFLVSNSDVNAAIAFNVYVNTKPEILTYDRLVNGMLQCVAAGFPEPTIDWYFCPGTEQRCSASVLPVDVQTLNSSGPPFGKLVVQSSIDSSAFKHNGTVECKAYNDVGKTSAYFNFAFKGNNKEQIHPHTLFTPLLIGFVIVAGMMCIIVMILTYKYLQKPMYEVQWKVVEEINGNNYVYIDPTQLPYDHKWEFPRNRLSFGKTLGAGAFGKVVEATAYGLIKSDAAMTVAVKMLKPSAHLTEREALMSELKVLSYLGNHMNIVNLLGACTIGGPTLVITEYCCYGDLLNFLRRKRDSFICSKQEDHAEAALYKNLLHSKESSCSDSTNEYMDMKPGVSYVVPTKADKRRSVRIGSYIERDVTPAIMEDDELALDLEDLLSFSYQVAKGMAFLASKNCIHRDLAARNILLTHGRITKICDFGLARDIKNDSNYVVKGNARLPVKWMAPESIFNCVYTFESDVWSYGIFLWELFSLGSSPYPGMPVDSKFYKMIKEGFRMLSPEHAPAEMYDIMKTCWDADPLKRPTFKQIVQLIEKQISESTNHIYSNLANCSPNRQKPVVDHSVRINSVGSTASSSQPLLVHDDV
Mitogen-activated protein kinase 14, sequence (Q16539 whole entry): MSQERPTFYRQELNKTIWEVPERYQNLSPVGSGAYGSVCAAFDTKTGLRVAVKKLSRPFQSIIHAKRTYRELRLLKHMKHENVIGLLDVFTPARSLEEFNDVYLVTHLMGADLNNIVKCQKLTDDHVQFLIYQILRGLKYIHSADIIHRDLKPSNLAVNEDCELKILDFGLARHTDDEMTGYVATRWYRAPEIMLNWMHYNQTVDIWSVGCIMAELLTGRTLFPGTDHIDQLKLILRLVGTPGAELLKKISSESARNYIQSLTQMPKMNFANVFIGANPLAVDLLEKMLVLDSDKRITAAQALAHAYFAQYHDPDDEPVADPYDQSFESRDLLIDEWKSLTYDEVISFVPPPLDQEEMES
Vascular endothelial growth factor receptor 2, sequence (P35968 whole entry): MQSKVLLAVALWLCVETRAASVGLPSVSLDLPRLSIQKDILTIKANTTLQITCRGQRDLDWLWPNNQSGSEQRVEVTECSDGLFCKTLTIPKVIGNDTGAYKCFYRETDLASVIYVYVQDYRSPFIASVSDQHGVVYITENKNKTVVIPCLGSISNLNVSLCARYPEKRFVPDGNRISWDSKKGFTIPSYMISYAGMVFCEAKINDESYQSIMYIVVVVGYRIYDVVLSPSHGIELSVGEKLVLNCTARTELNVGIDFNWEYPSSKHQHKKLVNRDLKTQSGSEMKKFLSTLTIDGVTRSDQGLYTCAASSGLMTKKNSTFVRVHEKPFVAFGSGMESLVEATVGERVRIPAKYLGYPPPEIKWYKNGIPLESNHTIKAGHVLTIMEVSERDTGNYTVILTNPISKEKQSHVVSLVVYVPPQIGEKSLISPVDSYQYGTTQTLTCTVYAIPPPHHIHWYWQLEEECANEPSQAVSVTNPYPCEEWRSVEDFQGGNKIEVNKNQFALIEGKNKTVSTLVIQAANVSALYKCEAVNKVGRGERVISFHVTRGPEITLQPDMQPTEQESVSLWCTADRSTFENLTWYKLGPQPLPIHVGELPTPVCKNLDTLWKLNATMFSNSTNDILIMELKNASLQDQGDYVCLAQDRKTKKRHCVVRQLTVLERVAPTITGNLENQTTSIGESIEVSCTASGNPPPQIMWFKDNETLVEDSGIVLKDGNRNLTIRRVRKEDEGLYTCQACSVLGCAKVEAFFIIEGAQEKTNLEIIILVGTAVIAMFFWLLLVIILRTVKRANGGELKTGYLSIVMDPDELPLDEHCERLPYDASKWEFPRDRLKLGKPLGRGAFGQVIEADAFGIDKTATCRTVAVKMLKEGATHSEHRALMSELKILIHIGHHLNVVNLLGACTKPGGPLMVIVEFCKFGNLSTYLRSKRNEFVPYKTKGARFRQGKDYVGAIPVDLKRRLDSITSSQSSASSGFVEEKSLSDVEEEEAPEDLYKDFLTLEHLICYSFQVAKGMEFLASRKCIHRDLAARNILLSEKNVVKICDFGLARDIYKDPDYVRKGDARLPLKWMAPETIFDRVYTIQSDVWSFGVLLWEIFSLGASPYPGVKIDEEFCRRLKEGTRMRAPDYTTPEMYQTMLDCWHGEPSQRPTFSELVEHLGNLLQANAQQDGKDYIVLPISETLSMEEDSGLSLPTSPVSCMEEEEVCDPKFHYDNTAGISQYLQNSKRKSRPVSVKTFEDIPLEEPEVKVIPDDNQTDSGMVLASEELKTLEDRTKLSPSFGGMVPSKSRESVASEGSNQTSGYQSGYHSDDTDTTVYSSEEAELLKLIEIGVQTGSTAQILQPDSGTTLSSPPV
Mitogen-activated protein kinase 10, sequence (P53779 whole entry): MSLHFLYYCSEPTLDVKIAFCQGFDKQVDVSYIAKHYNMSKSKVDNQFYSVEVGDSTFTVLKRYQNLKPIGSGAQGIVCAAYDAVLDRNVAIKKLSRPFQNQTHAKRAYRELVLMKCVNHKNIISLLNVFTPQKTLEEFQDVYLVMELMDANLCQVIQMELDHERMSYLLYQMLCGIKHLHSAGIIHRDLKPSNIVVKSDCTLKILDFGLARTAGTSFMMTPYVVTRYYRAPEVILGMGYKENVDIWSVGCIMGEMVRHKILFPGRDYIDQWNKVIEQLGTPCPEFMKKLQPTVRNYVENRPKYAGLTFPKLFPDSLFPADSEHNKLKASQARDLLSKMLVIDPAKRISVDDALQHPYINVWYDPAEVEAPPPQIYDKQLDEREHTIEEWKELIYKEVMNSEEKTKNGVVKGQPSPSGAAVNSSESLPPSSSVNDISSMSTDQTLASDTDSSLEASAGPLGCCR
Mitogen-activated protein kinase 8, sequence (P45983 whole entry): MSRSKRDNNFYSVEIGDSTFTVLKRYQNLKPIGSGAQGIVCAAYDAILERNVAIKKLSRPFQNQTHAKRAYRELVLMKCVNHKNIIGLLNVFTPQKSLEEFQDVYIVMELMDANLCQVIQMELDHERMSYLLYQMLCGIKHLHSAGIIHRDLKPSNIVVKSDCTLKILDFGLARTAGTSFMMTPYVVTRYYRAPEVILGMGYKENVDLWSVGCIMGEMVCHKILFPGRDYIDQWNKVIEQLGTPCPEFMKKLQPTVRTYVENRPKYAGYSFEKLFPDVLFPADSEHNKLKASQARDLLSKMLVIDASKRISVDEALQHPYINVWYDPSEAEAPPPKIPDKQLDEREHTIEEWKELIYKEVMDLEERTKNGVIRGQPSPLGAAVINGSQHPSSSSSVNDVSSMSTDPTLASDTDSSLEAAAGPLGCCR
Mitogen-activated protein kinase 9, sequence (P45984 whole entry): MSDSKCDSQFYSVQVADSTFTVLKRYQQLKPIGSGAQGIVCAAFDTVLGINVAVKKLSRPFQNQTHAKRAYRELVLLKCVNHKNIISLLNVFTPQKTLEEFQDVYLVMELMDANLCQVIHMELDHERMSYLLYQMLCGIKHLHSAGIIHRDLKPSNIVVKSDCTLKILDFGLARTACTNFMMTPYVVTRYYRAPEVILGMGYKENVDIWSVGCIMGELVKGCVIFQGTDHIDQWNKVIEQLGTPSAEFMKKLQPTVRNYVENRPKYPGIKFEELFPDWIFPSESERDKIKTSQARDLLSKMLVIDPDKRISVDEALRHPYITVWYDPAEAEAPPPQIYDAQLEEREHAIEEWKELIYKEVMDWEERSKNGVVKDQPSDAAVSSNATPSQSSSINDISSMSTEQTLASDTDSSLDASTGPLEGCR
Tyrosine-protein kinase Lyn, sequence (P07948 whole entry): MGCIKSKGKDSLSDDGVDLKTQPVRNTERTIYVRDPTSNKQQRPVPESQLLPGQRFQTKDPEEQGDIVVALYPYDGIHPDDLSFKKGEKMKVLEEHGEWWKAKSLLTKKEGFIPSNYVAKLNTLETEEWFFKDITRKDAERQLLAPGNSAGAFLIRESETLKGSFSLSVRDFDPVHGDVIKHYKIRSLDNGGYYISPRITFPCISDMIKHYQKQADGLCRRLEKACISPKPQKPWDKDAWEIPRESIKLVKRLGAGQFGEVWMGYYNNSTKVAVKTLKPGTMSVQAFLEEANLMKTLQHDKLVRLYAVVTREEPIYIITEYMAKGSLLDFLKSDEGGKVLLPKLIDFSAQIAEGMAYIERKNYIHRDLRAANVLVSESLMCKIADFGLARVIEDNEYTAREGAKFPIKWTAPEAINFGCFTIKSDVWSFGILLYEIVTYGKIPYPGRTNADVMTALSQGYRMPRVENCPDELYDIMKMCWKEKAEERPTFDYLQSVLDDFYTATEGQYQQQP

SMILES | IC50 [1] | IC50 [2] | IC50 [3] | IC50 [4] | IC50 [5] | IC50 [6] | half-life [7] | AUC(0-inf) [8] | IC50 [9] | Vd [10] | IC50 [11] | clearance [12] | IC50 [13] | bioavailability [14] | further results
Cc1ccc(C(=O)NC2CC2)cc1-c1ccc2c(OC(C)C)nncc2c1 | > 10000 nM | 0.6 nM | 3610 nM | 421 nM | 1.6 nM | 5950 nM | 1.8 h | 10900 ng·h/mL | 1140 nM | 2.1 L/kg | > 10000 nM | 13.3 mL/min/kg | 0.4 nM | 92% | 
Cc1ccc(C(=O)NC2CC2)cc1-c1ccc2c(O[C@H](C)C(F)(F)F)nncc2c1 | 9490 nM | 0.8 nM | 6050 nM | 1170 nM | 8.1 nM | 4390 nM |  |  | 505 nM |  | > 10000 nM |  | 0.9 nM |  | 
Cc1ccc(C(=O)NC2CC2)cc1-c1ccc2c(N3CCOC[C@@H]3C)nncc2c1 | > 10000 nM | 1.1 nM | > 10000 nM | 2010 nM | 1.2 nM | 4830 nM | 1.3 h | 7090 ng·h/mL | 8550 nM | 1.2 L/kg | > 10000 nM | 13.3 mL/min/kg | 1.1 nM | 57% | 
Cc1ccc(C(=O)NC2CC2)cc1-c1ccc2c(-c3ccccc3C)nncc2c1 |  |  |  |  |  |  | 1.4 h | 2330 ng·h/mL |  | 1.8 L/kg |  | 28.3 mL/min/kg |  | 40% | 
Cc1ccc(C(=O)NC2CC2)cc1-c1ccc2c(O[C@@H](C)C(F)(F)F)nncc2c1 | > 10000 nM | 1 nM | > 5000 nM | 1060 nM | 2.7 nM | 7770 nM | 9.9 h | 21100 ng·h/mL | 2680 nM | 4.7 L/kg | > 10000 nM | 5.83 mL/min/kg | 0.4 nM | 72% | IC50 [15]: 88 nM; IC50 [16]: 954 nM; ED50 [17]: < 0.03 mg/kg; AUC [18]: 51.1 ng·h/mL; ED50 [19]: 0.04 mg/kg
Cc1ccc(C(=O)NC2CC2)cc1-c1ccc2c(NCCN3CCOCC3)nncc2c1 | > 10000 nM | 1.9 nM | > 10000 nM | 1060 nM | 4.3 nM | > 10000 nM | 2.3 h | 39 ng·h/mL | 5140 nM | 2.8 L/kg | > 10000 nM | 20 mL/min/kg | 24.9 nM | 1% | Papp B→A [20]: 31 ×10⁻⁶ cm/s; Papp A→B [21]: 0.3 ×10⁻⁶ cm/s
O=C(NC1CC1)c1cccc(-c2ccc3c(N4CCOCC4)nncc3c2)c1 |  | 182 nM |  | > 8330 nM |  |  |  |  |  |  |  |  |  |  | 

Further lines, with some results ahead:

IC50 [1] | IC50 [2] | IC50 [3] | IC50 [4] | IC50 [5] | IC50 [6] | half-life [7] | AUC(0-inf) [8] | IC50 [9] | Vd [10] | IC50 [11] | clearance [12] | IC50 [13] | bioavailability [14] | SMILES | further results
> 10000 nM | 2 nM | 1340 nM | 149 nM | 3.5 nM | > 10000 nM |  |  | 6290 nM |  | > 10000 nM |  | 0.8 nM |  | Cc1ccc(C(=O)NC2CC2)cc1-c1ccc2c(-c3ccccc3)nncc2c1 | 
 | 0.6 nM |  | 41 nM |  |  |  |  |  |  |  |  |  |  | Cc1ccc(C(=O)NC2CC2)cc1-c1ccc2c(OC(C)C)cncc2c1 | 
> 10000 nM | 1.2 nM | 3810 nM | 529 nM | 0.9 nM | 9690 nM |  |  | 3040 nM |  | > 10000 nM |  | 0.7 nM |  | Cc1ccc(C(=O)NC2CC2)cc1-c1ccc2c(N3CCOCC3)nncc2c1 | Papp B→A [20]: 39.8 ×10⁻⁶ cm/s; Papp A→B [21]: 10.5 ×10⁻⁶ cm/s; half-life [22]: 4.1 h; bioavailability [23]: 22%; AUC(0-inf) [24]: 124 ng·h/mL; Vd [25]: 3.5 L/kg; clearance [26]: 28.3 mL/min/kg
